Results reported in PubChem BioAssay (NCI).
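Protocol summary: plate cells (96-well), add compound at 5 concentrations, incubate 48 h, interpolate endpoints linearly. At the TGI there is no net growth.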

Legend:
Test in all cases: NCI tumour cell line growth inhibition, 48 h
TK-10 renal = test system: TK-10 renal
NCI-H522 lung = test system: NCI-H522 lung
SK-MEL-2 melanoma = test system: SK-MEL-2 melanoma
PC-3 prostate = test system: PC-3 prostate
HOP-62 NSCLC = test system: HOP-62 NSCLC
HOP-92 NSCLC = test system: HOP-92 NSCLC
786-0 renal = test system: 786-0 renal
UACC-62 melanoma = test system: UACC-62 melanoma
NCI-H460 lung = test system: NCI-H460 lung
SK-MEL-28 melanoma = test system: SK-MEL-28 melanoma
SK-MEL-5 melanoma = test system: SK-MEL-5 melanoma
OVCAR-3 ovarian = test system: OVCAR-3 ovarian
M14 melanoma = test system: M14 melanoma
EKVX NSCLC = test system: EKVX NSCLC
RPMI-8226 leukemia = test system: RPMI-8226 leukemia
HCC-2998 colon = test system: HCC-2998 colon
K-562 leukemia = test system: K-562 leukemia
MALME-3M melanoma = test system: MALME-3M melanoma
SNB-19 CNS = test system: SNB-19 CNS
UACC-257 melanoma = test system: UACC-257 melanoma
COLO 205 colon = test system: COLO 205 colon
MCF7 breast = test system: MCF7 breast
U251 CNS = test system: U251 CNS
A549 NSCLC = test system: A549 NSCLC
NCI-H226 lung = test system: NCI-H226 lung
SF-539 CNS = test system: SF-539 CNS
SF-295 CNS = test system: SF-295 CNS
SNB-75 CNS = test system: SNB-75 CNS
SR leukemia = test system: SR leukemia
HCT-116 colon = test system: HCT-116 colon
NCI-H23 lung = test system: NCI-H23 lung
KM12 colon = test system: KM12 colon
CCRF-CEM leukemia = test system: CCRF-CEM leukemia
OVCAR-4 ovarian = test system: OVCAR-4 ovarian
SW-620 colon = test system: SW-620 colon
BT-549 breast = test system: BT-549 breast
HCT-15 colon = test system: HCT-15 colon
UO-31 renal = test system: UO-31 renal
SN12C renal = test system: SN12C renal
OVCAR-8 ovarian = test system: OVCAR-8 ovarian
NCI/ADR-RES ovarian = test system: NCI/ADR-RES ovarian
ACHN renal = test system: ACHN renal
HT29 colon = test system: HT29 colon
MDA-N = test system: MDA-N
CAKI-1 renal = test system: CAKI-1 renal
MOLT-4 leukemia = test system: MOLT-4 leukemia
RXF 393 renal = test system: RXF 393 renal
DU-145 prostate = test system: DU-145 prostate
IGROV1 ovarian = test system: IGROV1 ovarian
HL-60(TB) leukemia = test system: HL-60(TB) leukemia
OVCAR-5 ovarian = test system: OVCAR-5 ovarian
SK-OV-3 ovarian = test system: SK-OV-3 ovarian
SF-268 CNS = test system: SF-268 CNS
T-47D breast = test system: T-47D breast
MDA-MB-231 breast = test system: MDA-MB-231 breast
A498 renal = test system: A498 renal
MDA-MB-435 = test system: MDA-MB-435
HS 578T breast = test system: HS 578T breast
LOX IMVI melanoma = test system: LOX IMVI melanoma

Measured: TGI

O=C1c2ccccc2C2=Nc3ccncc3CN12
> 100 µM: TK-10 renal | NCI-H522 lung | SK-MEL-2 melanoma | PC-3 prostate | HOP-62 NSCLC | HOP-92 NSCLC | 786-0 renal | UACC-62 melanoma | NCI-H460 lung | SK-MEL-28 melanoma | SK-MEL-5 melanoma | OVCAR-3 ovarian | M14 melanoma | EKVX NSCLC | RPMI-8226 leukemia | HCC-2998 colon | K-562 leukemia | MALME-3M melanoma | SNB-19 CNS | UACC-257 melanoma | COLO 205 colon | MCF7 breast | U251 CNS | A549 NSCLC | NCI-H226 lung | SF-539 CNS | SF-295 CNS | SNB-75 CNS | SR leukemia | HCT-116 colon | NCI-H23 lung | KM12 colon | CCRF-CEM leukemia | OVCAR-4 ovarian | SW-620 colon | BT-549 breast | HCT-15 colon | UO-31 renal | SN12C renal | OVCAR-8 ovarian | NCI/ADR-RES ovarian | ACHN renal | HT29 colon | MDA-N | CAKI-1 renal | MOLT-4 leukemia | RXF 393 renal | DU-145 prostate | IGROV1 ovarian | HL-60(TB) leukemia | OVCAR-5 ovarian | SK-OV-3 ovarian | SF-268 CNS

CN(/N=C/c1ccccn1)C1=NCCCCN1
> 100 µM: TK-10 renal | T-47D breast | NCI-H522 lung | SK-MEL-2 melanoma | PC-3 prostate | HOP-62 NSCLC | HOP-92 NSCLC | 786-0 renal | UACC-62 melanoma | NCI-H460 lung | SK-MEL-28 melanoma | SK-MEL-5 melanoma | OVCAR-3 ovarian | M14 melanoma | EKVX NSCLC | RPMI-8226 leukemia | HCC-2998 colon | K-562 leukemia | MALME-3M melanoma | SNB-19 CNS | UACC-257 melanoma | COLO 205 colon | MCF7 breast | U251 CNS | A549 NSCLC | NCI-H226 lung | SF-539 CNS | SF-295 CNS | SNB-75 CNS | SR leukemia | MDA-MB-231 breast | HCT-116 colon | NCI-H23 lung | KM12 colon | CCRF-CEM leukemia | OVCAR-4 ovarian | SW-620 colon | BT-549 breast | HCT-15 colon | UO-31 renal | OVCAR-8 ovarian | NCI/ADR-RES ovarian | ACHN renal | A498 renal | MDA-MB-435 | HT29 colon | MDA-N | CAKI-1 renal | MOLT-4 leukemia | RXF 393 renal | HS 578T breast | IGROV1 ovarian | LOX IMVI melanoma | HL-60(TB) leukemia | OVCAR-5 ovarian | SK-OV-3 ovarian | SF-268 CNS
